Experimental data reported in patent publication US10398751B2, “Pharmaceutical compositions of water soluble peptides with poor solubility in isotonic conditions and methods for their use” (STRONGBRIDGE IRELAND LIMITED, priority 2016, dated 2019).
Where a name gives a salt, the structure may show the parent alone.

What was measured:
[1] = Solubility in Tris-HCl and lysine solutions; format: physicochemical
Procedure: In light of the solubility of veldoreotide acetate in Tris-HCl, the solubility of veldoreotide acetate was tested in solutions containing L-lysine and L-lysine HCl.

[2] = Solubility screening of veldoreotide acetate (10 mg, incremental volumes of medium, USP definition); format: physicochemical
Text: The solubility of veldoreotide acetate in aqueous media was screened by the following method. A fixed amount of 10 milligrams of the peptide was weighed and dissolved at ambient temperature by increased (incremental) volumes of the tested medium until a complete solubility was observed, i.e, clear/transparent solution and absence of any precipitates (the solubility endpoint values were defined according to USP guidance). Following the results of the screening studies, several media were selected for verification studies based on quantitative assessment of the peptide concentration by HPLC (maximal solubility). The results of the screening study are depicted in Table 1 while the results of the verification studies are included in Table 2.

## C[C@@H](O)[C@@H]1NC(=O)[C@H](CCCCN)NC(=O)[C@@H](Cc2c[nH]c3ccccc23)NC(=O)[C@H](Cc2c[nH]c3ccccc23)NC(=O)[C@H](Cc2ccccc2)NC(=O)CCCNC(=O)CCCN(CC(N)=O)C(=O)[C@H](Cc2ccccc2)NC1=O [Veldoreotide Acetate, Cyclo(-γ-aminobutyryl-L-phenylalanyl-L-tryptophanyl-D-tryptophanyl-L-lysyl-L-threonyl-L-phenylalanyl-N-carbamoylmethyl-γ-aminobutyryl), acetate salt]
[1]; 20 mM Tris-HCl
  solubility: highly soluble
[1]; Tris-HCl increased to 137 mM or 117 mM NaCl added
  solubility: significantly reduced
[1]; addition of L-lysine HCl, isotonic media
  effect on solubility of veldoreotide acetate: substantially improved
[1]; solution containing L-lysine
  effect on solubility of veldoreotide acetate: did not substantially improve
[2]; 10 mg in 0.1% TFA
  Results USP Definition: Freely soluble
[2]; 10 mg in 0.1N HCL, acetate salt
  Results USP Definition: Soluble
[2]; 10 mg in 0.1N HCL, listed as veldoreotide acetate, acetate salt
  Results USP Definition: soluble
[2]; 10 mg in 0.9N HCL, acetate salt
  Results USP Definition: Insoluble
[2]; 10 mg in 0.9N HCL, listed as veldoreotide acetate, acetate salt
  Results USP Definition: insoluble
[2]; 10 mg in 2% Propylene glycol in olive oil (or cottonseed oil)
  Results USP Definition: Sparingly
[2]; 10 mg in 10% EtOH (95%) in olive oil (or cottonseed oil)
  Results USP Definition: Sparingly
[2]; 10 mg in Acetate saline 100 mM, Mannitol 250 mM (pH 4.3)
  Results USP Definition: Slightly soluble
[2]; 10 mg in Acetic acid 1% (glacial)
  Results USP Definition: Freely soluble
[2]; 10 mg in Acetone (USP)
  Results USP Definition: Freely soluble
[2]; 10 mg in Caprylic acid
  Results USP Definition: Soluble
[2]; 10 mg in DDW (Double distilled water)
  Results USP Definition: Freely soluble
[2]; 10 mg in Dextrose 5% (USP)
  Results USP Definition: Freely soluble
[2]; 10 mg in Ethanol (USP)
  Results USP Definition: Freely soluble
[2]; 10 mg in Glycerol
  Results USP Definition: Soluble
[2]; 10 mg in Lactic acid 37 mM, Mannitol 250 mM (pH 4.3)
  Results USP Definition: Freely soluble
[2]; 10 mg in Oleic acid
  Results USP Definition: Very slightly
[2]; 10 mg in PBS pH 7.2
  Results USP Definition: Very slightly
[2]; 10 mg in Propylene glycol
  Results USP Definition: Freely soluble
[2]; 10 mg in Refined vegetable oils, Olive, Cotton, Coconut, Canola
  Results USP Definition: Insoluble
[2]; 10 mg in Saline (USP) (0.9% NaCl) pH 4.5
  Results USP Definition: Very slightly
[2]; 10 mg in WFI-USP (water for injection)
  Results USP Definition: Soluble
[2]; 0.1% TFA, 10 mg in 0.1% TFA, read-out: 0.01 ml Very soluble (1 g/ml)
  solubility: < 1000 mg/mL
[2]; 0.1% TFA, 10 mg in 0.1% TFA, read-out: 0.5 ml Soluble (0.02 g/ml; 20 mg/ml)
  solubility: > 20 mg/mL
[2]; 0.1% TFA, 10 mg in 0.1% TFA, read-out: 1 ml Sparingly soluble (0.01 g/ml; 10 mg/ml)
  solubility: > 10 mg/mL
[2]; 0.1% TFA, 0.1 ml Freely soluble (0.1 g/ml), 10 mg in 0.1% TFA
  solubility: > 100 mg/mL
[2]; 0.1% TFA, 10 ml Slightly soluble (0.001 g/ml; 1 mg/ml), 10 mg in 0.1% TFA
  solubility: > 1 mg/mL
[2]; 0.1N HCl, 10 mg in 0.1N HCL, read-out: 0.01 ml Very soluble (1 g/ml)
  solubility: < 1000 mg/mL
[2]; 0.1N HCl, 10 mg in 0.1N HCL, read-out: 0.5 ml Soluble (0.02 g/ml; 20 mg/ml)
  solubility: > 20 mg/mL
[2]; 0.1N HCl, 10 mg in 0.1N HCL, read-out: 1 ml Sparingly soluble (0.01 g/ml; 10 mg/ml)
  solubility: > 10 mg/mL
[2]; 0.1N HCl, 0.1 ml Freely soluble (0.1 g/ml), 10 mg in 0.1N HCL
  solubility: > 100 mg/mL
[2]; 0.1N HCl, 10 ml Slightly soluble (0.001 g/ml; 1 mg/ml), 10 mg in 0.1N HCL
  solubility: > 1 mg/mL
[2]; 0.9N HCl, 10 mg in 0.9N HCL, read-out: 0.01 ml Very soluble (1 g/ml)
  solubility: < 1000 mg/mL
[2]; 0.9N HCl, 10 mg in 0.9N HCL, read-out: 0.5 ml Soluble (0.02 g/ml; 20 mg/ml)
  solubility: < 20 mg/mL
[2]; 0.9N HCl, 10 mg in 0.9N HCL, read-out: 1 ml Sparingly soluble (0.01 g/ml; 10 mg/ml)
  solubility: < 10 mg/mL
[2]; 0.9N HCl, 0.1 ml Freely soluble (0.1 g/ml), 10 mg in 0.9N HCL
  solubility: < 100 mg/mL
[2]; 0.9N HCl, 10 ml Slightly soluble (0.001 g/ml; 1 mg/ml), 10 mg in 0.9N HCL
  solubility: < 1 mg/mL
[2]; 2% propylene glycol in olive oil (or cottonseed oil), 10 mg in 2% Propylene glycol in olive oil (or cottonseed oil), read-out: 0.01 ml Very soluble (1 g/ml)
  solubility: < 1000 mg/mL
[2]; 2% propylene glycol in olive oil (or cottonseed oil), 10 mg in 2% Propylene glycol in olive oil (or cottonseed oil), read-out: 0.5 ml Soluble (0.02 g/ml; 20 mg/ml)
  solubility: < 20 mg/mL
[2]; 2% propylene glycol in olive oil (or cottonseed oil), 10 mg in 2% Propylene glycol in olive oil (or cottonseed oil), read-out: 1 ml Sparingly soluble (0.01 g/ml; 10 mg/ml)
  solubility: > 10 mg/mL
[2]; 2% propylene glycol in olive oil (or cottonseed oil), 0.1 ml Freely soluble (0.1 g/ml), 10 mg in 2% Propylene glycol in olive oil (or cottonseed oil)
  solubility: < 100 mg/mL
[2]; 2% propylene glycol in olive oil (or cottonseed oil), 10 ml Slightly soluble (0.001 g/ml; 1 mg/ml), 10 mg in 2% Propylene glycol in olive oil (or cottonseed oil)
  solubility: > 1 mg/mL
[2]; 10% EtOH (95%) in olive oil (or cottonseed oil), 10 mg in 10% EtOH (95%) in olive oil (or cottonseed oil), read-out: 0.01 ml Very soluble (1 g/ml)
  solubility: < 1000 mg/mL
[2]; 10% EtOH (95%) in olive oil (or cottonseed oil), 10 mg in 10% EtOH (95%) in olive oil (or cottonseed oil), read-out: 0.5 ml Soluble (0.02 g/ml; 20 mg/ml)
  solubility: < 20 mg/mL
[2]; 10% EtOH (95%) in olive oil (or cottonseed oil), 10 mg in 10% EtOH (95%) in olive oil (or cottonseed oil), read-out: 1 ml Sparingly soluble (0.01 g/ml; 10 mg/ml)
  solubility: > 10 mg/mL
[2]; 10% EtOH (95%) in olive oil (or cottonseed oil), 0.1 ml Freely soluble (0.1 g/ml), 10 mg in 10% EtOH (95%) in olive oil (or cottonseed oil)
  solubility: < 100 mg/mL
[2]; 10% EtOH (95%) in olive oil (or cottonseed oil), 10 ml Slightly soluble (0.001 g/ml; 1 mg/ml), 10 mg in 10% EtOH (95%) in olive oil (or cottonseed oil)
  solubility: > 1 mg/mL
[2]; Acetate saline 100 mM, Mannitol 250 mM, pH 4.3, 10 mg in Acetate saline 100 mM, Mannitol 250 mM (pH 4.3), read-out: 0.01 ml Very soluble (1 g/ml)
  solubility: < 1000 mg/mL
[2]; Acetate saline 100 mM, Mannitol 250 mM, pH 4.3, 10 mg in Acetate saline 100 mM, Mannitol 250 mM (pH 4.3), read-out: 0.5 ml Soluble (0.02 g/ml; 20 mg/ml)
  solubility: < 20 mg/mL
[2]; Acetate saline 100 mM, Mannitol 250 mM, pH 4.3, 10 mg in Acetate saline 100 mM, Mannitol 250 mM (pH 4.3), read-out: 1 ml Sparingly soluble (0.01 g/ml; 10 mg/ml)
  solubility: < 10 mg/mL
[2]; Acetate saline 100 mM, Mannitol 250 mM, pH 4.3, 0.1 ml Freely soluble (0.1 g/ml), 10 mg in Acetate saline 100 mM, Mannitol 250 mM (pH 4.3)
  solubility: < 100 mg/mL
[2]; Acetate saline 100 mM, Mannitol 250 mM, pH 4.3, 10 ml Slightly soluble (0.001 g/ml; 1 mg/ml), 10 mg in Acetate saline 100 mM, Mannitol 250 mM (pH 4.3)
  solubility: > 1 mg/mL
[2]; Acetate saline 100 mM, Mannitol 250 mM, pH 4.3, Acetate saline 100 mM, Mannitol 250 mM (pH 4.3), read-out: Results USP Definition: solubility
  solubility: 2 to 3 mg/mL
[2]; Acetic acid 1% (glacial), 10 mg in Acetic acid 1% (glacial), read-out: 0.01 ml Very soluble (1 g/ml)
  solubility: < 1000 mg/mL
[2]; Acetic acid 1% (glacial), 10 mg in Acetic acid 1% (glacial), read-out: 0.5 ml Soluble (0.02 g/ml; 20 mg/ml)
  solubility: > 20 mg/mL
[2]; Acetic acid 1% (glacial), 10 mg in Acetic acid 1% (glacial), read-out: 1 ml Sparingly soluble (0.01 g/ml; 10 mg/ml)
  solubility: > 10 mg/mL
[2]; Acetic acid 1% (glacial), 0.1 ml Freely soluble (0.1 g/ml), 10 mg in Acetic acid 1% (glacial)
  solubility: > 100 mg/mL
[2]; Acetic acid 1% (glacial), 10 ml Slightly soluble (0.001 g/ml; 1 mg/ml), 10 mg in Acetic acid 1% (glacial)
  solubility: > 1 mg/mL
[2]; Acetone (USP), 10 mg in Acetone (USP), read-out: 0.01 ml Very soluble (1 g/ml)
  solubility: < 1000 mg/mL
[2]; Acetone (USP), 10 mg in Acetone (USP), read-out: 0.5 ml Soluble (0.02 g/ml; 20 mg/ml)
  solubility: > 20 mg/mL
